Results as given in US8232288B2, “Substituted benzimidazoles, benzothiazoles and benzoxazoles” (Gruenenthal GmbH, priority 2009, dated 2012).

What was measured:
[1] = biological target: T1, human B1R receptor (hB1R) (Homo sapiens, UniProt P46663); experiment: Functional investigation on the bradykinin receptor 1 (B1R), FLIPR Ca2+ assay, hB1R cells; type: cell-based
T1 construct: expressed in transfected cells; host or cells: CHO K1 cells
T1 sequence (P46663 1-353): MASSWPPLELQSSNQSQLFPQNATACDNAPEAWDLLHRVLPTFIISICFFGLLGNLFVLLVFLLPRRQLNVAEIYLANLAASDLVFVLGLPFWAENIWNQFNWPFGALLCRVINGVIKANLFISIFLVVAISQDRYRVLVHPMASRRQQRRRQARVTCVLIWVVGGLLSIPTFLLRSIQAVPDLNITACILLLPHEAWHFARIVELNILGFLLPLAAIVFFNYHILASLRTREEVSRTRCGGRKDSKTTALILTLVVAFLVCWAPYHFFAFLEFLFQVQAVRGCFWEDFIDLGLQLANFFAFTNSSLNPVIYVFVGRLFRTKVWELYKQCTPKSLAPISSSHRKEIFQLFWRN
Method in brief: (§1)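 Stably transfected CHO K1 cells expressing human or rat B1R were loaded with Fluo-4, and Ca2+ fluorescence was read on a FLIPR. Compound (10 μM) was added first to measure activation. After 10–20 min, agonist at EC80 was added (Lys-Des-Arg9-bradykinin for hB1R, Des-Arg9-bradykinin for rB1R) to give % inhibition. IC50 values came from concentration series.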

[2] = biological target: T2, B1R receptor of the rat (rB1R) (Rattus norvegicus, UniProt P97583); experiment: Functional investigation on the bradykinin receptor 1 (B1R), FLIPR Ca2+ assay, rB1R cells; type: cell-based
T2 construct: expressed in transfected cells; host or cells: CHO K1 cells
T2 sequence (P97583 1-337): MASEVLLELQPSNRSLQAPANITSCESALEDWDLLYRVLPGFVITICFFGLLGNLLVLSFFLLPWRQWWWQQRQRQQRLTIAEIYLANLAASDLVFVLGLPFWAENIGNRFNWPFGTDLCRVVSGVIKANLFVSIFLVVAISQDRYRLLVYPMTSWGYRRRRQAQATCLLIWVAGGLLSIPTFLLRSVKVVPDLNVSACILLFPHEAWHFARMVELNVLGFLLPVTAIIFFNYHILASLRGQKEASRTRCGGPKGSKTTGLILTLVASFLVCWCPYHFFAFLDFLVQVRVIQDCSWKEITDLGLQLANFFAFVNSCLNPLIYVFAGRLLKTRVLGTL
Method in brief: as §1

Row | Structure (SMILES) | inhibition at 10 µM [1] [%] | inhibition at 10 µM [2] [%]
1 | COc1cc(C)c(S(=O)(=O)N(C)C(C)c2nc3cccc(C(=O)N4CCC5(CCN(Cc6ccc(F)c(F)c6)CC5)CC4)c3[nH]2)c(C)c1 (stereo not shown) [I_CC-30, N-[1-[7-[9-[(3,4-Difluoro-phenyl)-methyl]-3,9-diazaspiro[5.5]undecane-3-carbonyl]-1H-benzoimidazol-2-yl]-ethyl]-4-methoxy-N,2,6-trimethyl-benzenesulfonic acid amide] | 63 | 99
2 | COc1cc(C)c(S(=O)(=O)N(C)CCc2nc3c(C(=O)N4CCC5(CC4)CCN(c4ccncc4)CC5)cccc3[nH]2)c(C)c1 [I_02, 4-methoxy-N,2,6-trimethyl-N-[2-[4-(9-pyridin-4-yl-3,9-diazaspiro[5.5]undecane-3-carbonyl)-1H-benzoimidazol-2-yl]-ethyl]-benzenesulfonic acid amide] | 97 | 100
3 | COc1cc(C)c(C(=O)N(C)Cc2nc3cccc(C(=O)N4CCC5(CC4)CCN(c4ccncc4)CC5)c3[nH]2)c(C)c1 [I_CC-23, 4-methoxy-N,2,6-trimethyl-N-[[7-(3-pyridin-4-yl-3,9-diazaspiro[5.5]undecane-9-carbonyl)-1H-benzoimidazol-2-yl]-methyl]-benzamide] | 100 | 105
4 | COc1cc(C)c(S(=O)(=O)N(C)c2nc3cccc(C(=O)N4CCC5(CC4)CCN(c4ccncc4)CC5)c3n2C)c(C)c1 [I_CC-14, 4-methoxy-N,2,6-trimethyl-N-[1-methyl-7-(3-pyridin-4-yl-3,9-diazaspiro[5.5]undecane-9-carbonyl)-1H-benzoimidazol-2-yl]-benzenesulfonic acid amide] | 96 | 90
5 | COc1cc(C)c(S(=O)(=O)N(C)C(C)c2nc3cccc(C(=O)N4CCC5(CCN(Cc6c(C)noc6C)CC5)CC4)c3[nH]2)c(C)c1 (stereo not shown) [I_CC-42, N-[1-[7-[9-[(3,5-Dimethyl-isoxazol-4-yl)-methyl]-3,9-diazaspiro[5.5]undecane-3-carbonyl]-1H-benzoimidazol-2-yl]-ethyl]-4-methoxy-N,2,6-trimethyl-benzenesulfonic acid amide] | 76 | 90
6 | CN(Cc1nc2cccc(C(=O)N3CCC4(CC3)CCN(c3ccncc3)CC4)c2[nH]1)C(=O)c1ccccc1Cl [I_CC-04, 2-chloro-N-methyl-N-[[7-(3-pyridin-4-yl-3,9-diazaspiro[5.5]undecane-9-carbonyl)-1H-benzoimidazol-2-yl]-methyl]-benzamide] | 65 | 102
7 | COc1cc(C)c(S(=O)(=O)N(C)C(C)c2nc3cccc(C(=O)N4CCC5(CCN(Cc6ccncc6)CC5)CC4)c3[nH]2)c(C)c1 (stereo not shown) [I_CC-27, 4-Methoxy-N,2,6-trimethyl-N-[1-[7-[9-(pyridin-4-yl-methyl)-3,9-diazaspiro[5.5]undecane-3-carbonyl]-1H-benzoimidazol-2-yl]-ethyl]-benzenesulfonic acid amide] | 90 | 92
8 | COc1cc(C)c(S(=O)(=O)N(C)Cc2nc3cccc(C(=O)N4CCC5(CCC(Oc6ccncc6)CC5)CC4)c3[nH]2)c(C)c1 [I_03, 4-methoxy-N,2,6-trimethyl-N-[[7-(9-pyridin-4-yloxy-3-azaspiro[5.5]undecane-3-carbonyl)-1H-benzoimidazol-2-yl]-methyl]-benzenesulfonic acid amide] | 99 | 86
9 | COc1cc(C)c(S(=O)(=O)N(C)C(C)c2nc3cccc(C(=O)N4CCC5(CCN(Cc6c[nH]c(C)n6)CC5)CC4)c3[nH]2)c(C)c1 (stereo not shown) [I_CC-37, 4-Methoxy-N,2,6-trimethyl-N-[1-[7-[9-[(2-methyl-1H-imidazol-4-yl)-methyl]-3,9-diazaspiro[5.5]undecane-3-carbonyl]-1H-benzoimidazol-2-yl]-ethyl]-benzenesulfonic acid amide] | 80 | 101
10 | Cc1cccc(Cl)c1S(=O)(=O)N(C)Cc1nc2cccc(C(=O)N3CCC4(CC3)CCN(c3ccncc3)C4)c2[nH]1 [I_CC-07, 2-chloro-N,6-dimethyl-N-[[7-(3-pyridin-4-yl-3,8-diazaspiro[4.5]decane-8-carbonyl)-1H-benzoimidazol-2-yl]-methyl]-benzenesulfonic acid amide] | 100 | 97
11 | COc1cc(C)c(S(=O)(=O)N(C)CCc2nc3ccc(C(=O)N4CCC5(CC4)CCN(c4ccncc4)CC5)cc3[nH]2)c(C)c1 [I_26, 4-methoxy-N,2,6-trimethyl-N-[2-[6-(9-pyridin-4-yl-3,9-diazaspiro[5.5]undecane-3-carbonyl)-1H-benzoimidazol-2-yl]-ethyl]-benzenesulfonic acid amide] | 98 | 103
12 | COc1cc(C)c(S(=O)(=O)N(C)Cc2nc3c(C(=O)N4CCC5(CC4)CCN(c4ccncc4)CC5)cccc3n2C)c(C)c1 [I_20, 4-methoxy-N,2,6-trimethyl-N-[[1-methyl-4-(9-pyridin-4-yl-3,9-diazaspiro[5.5]undecane-3-carbonyl)-1H-benzoimidazol-2-yl]-methyl]-benzenesulfonic acid amide] | 98 | 30

Further lines, results first:

Row | inhibition at 10 µM [1] [%] | inhibition at 10 µM [2] [%] | Structure (SMILES)
13 | 42 | 89 | COc1cc(C)c(S(=O)(=O)N(C)C(C)c2nc3cccc(C(=O)N4CCC5(CCN(C(=O)c6ccc(C(F)(F)F)cn6)CC5)CC4)c3[nH]2)c(C)c1 (stereo not shown) [I_CC-46, 4-Methoxy-N,2,6-trimethyl-N-[1-[7-[9-[5-(trifluoromethyl)-pyridine-2-carbonyl]-3,9-diazaspiro[5.5]undecane-3-carbonyl]-1H-benzoimidazol-2-yl]-ethyl]-benzenesulfonic acid amide]
14 | 98 | 101 | COc1cc(C)c(C(=O)N(C)Cc2nc3cccc(C(=O)N4CCC5(CC4)CCN(c4ccncc4)C5)c3[nH]2)c(C)c1 [I_CC-24, 4-methoxy-N,2,6-trimethyl-N-[[7-(3-pyridin-4-yl-3,8-diazaspiro[4.5]decane-8-carbonyl)-1H-benzoimidazol-2-yl]-methyl]-benzamide]
15 | 97 | 99 | COc1cc(C)c(S(=O)(=O)N(C)c2nc3cccc(C(=O)N4CCC5(CC4)CCN(c4ccncc4)C5)c3n2C)c(C)c1 [I_CC-15, 4-methoxy-N,2,6-trimethyl-N-[1-methyl-7-(3-pyridin-4-yl-3,8-diazaspiro[4.5]decane-8-carbonyl)-1H-benzoimidazol-2-yl]-benzenesulfonic acid amide]
16 | 85 | 97 | COc1cc(C)c(S(=O)(=O)N(C)C(C)c2nc3cccc(C(=O)N4CCC5(CCN(Cc6csnn6)CC5)CC4)c3[nH]2)c(C)c1 (stereo not shown) [I_CC-38, 4-Methoxy-N,2,6-trimethyl-N-[1-[7-[9-([1,2,3]thiadiazol-4-yl-methyl)-3,9-diazaspiro[5.5]undecane-3-carbonyl]-1H-benzoimidazol-2-yl]-ethyl]-benzenesulfonic acid amide]
17 | 55 | 72 | COc1cc(C)c(S(=O)(=O)N(C)Cc2nc3cccc(C(=O)N4CCC5(CCC(N6CC(F)(F)C6)CC5)CC4)c3[nH]2)c(C)c1 [I_05, N-[[7-[9-(3,3-difluoro-azetidin-1-yl)-3-azaspiro[5.5]undecane-3-carbonyl]-1H-benzoimidazol-2-yl]-methyl]-4-methoxy-N,2,6-trimethyl-benzenesulfonic acid amide]
18 | 95 | 96 | CN(Cc1nc2ccc(C(=O)N3CCC4(CC3)CCN(c3ccncc3)CC4)cc2[nH]1)S(=O)(=O)c1cccc2ccccc12 [I_25, N-methyl-N-[[6-(9-pyridin-4-yl-3,9-diazaspiro[5.5]undecane-3-carbonyl)-1H-benzoimidazol-2-yl]-methyl]-naphthalene-1-sulfonic acid amide]
19 | 77 | 93 | COc1cc(C)c(S(=O)(=O)N(C)C(C)c2nc3cccc(C(=O)N4CCC5(CCN(C(=O)c6ccc(F)cc6Cl)CC5)CC4)c3[nH]2)c(C)c1 (stereo not shown) [I_CC-52, N-[1-[7-[9-(2-Chloro-4-fluoro-benzoyl)-3,9-diazaspiro[5.5]undecane-3-carbonyl]-1H-benzoimidazol-2-yl]-ethyl]-4-methoxy-N,2,6-trimethyl-benzenesulfonic acid amide]
20 | 72 | 87 | COc1cc(C)c(S(=O)(=O)N(C)C(C)c2nc3cccc(C(=O)N4CCC5(CCN(C(=O)c6ccc(C#N)cc6)CC5)CC4)c3[nH]2)c(C)c1 (stereo not shown) [I_CC-49, N-[1-[7-[9-(4-Cyano-benzoyl)-3,9-diazaspiro[5.5]undecane-3-carbonyl]-1H-benzoimidazol-2-yl]-ethyl]-4-methoxy-N,2,6-trimethyl-benzenesulfonic acid amide]
